Consider twelve compounds from patent US9212182B2, “Bicyclic sulfonamide compounds as sodium channel inhibitors” (AMGEN INC., priority 2013, dated 2015).

Molecules are shown by their SMILES. Where two headings read alike, the source gives them in different places.

The experiment has as its target Nav 1.7 (Homo sapiens (Human), UniProt Q15858). Description: in-vitro Nav 1.7 PX (IC50). The format is cell-based.
Where [1] appears, read: in-vitro Nav 1.7 PX data (PatchXpress).

Sequence of Nav 1.7 (Q15858 whole entry): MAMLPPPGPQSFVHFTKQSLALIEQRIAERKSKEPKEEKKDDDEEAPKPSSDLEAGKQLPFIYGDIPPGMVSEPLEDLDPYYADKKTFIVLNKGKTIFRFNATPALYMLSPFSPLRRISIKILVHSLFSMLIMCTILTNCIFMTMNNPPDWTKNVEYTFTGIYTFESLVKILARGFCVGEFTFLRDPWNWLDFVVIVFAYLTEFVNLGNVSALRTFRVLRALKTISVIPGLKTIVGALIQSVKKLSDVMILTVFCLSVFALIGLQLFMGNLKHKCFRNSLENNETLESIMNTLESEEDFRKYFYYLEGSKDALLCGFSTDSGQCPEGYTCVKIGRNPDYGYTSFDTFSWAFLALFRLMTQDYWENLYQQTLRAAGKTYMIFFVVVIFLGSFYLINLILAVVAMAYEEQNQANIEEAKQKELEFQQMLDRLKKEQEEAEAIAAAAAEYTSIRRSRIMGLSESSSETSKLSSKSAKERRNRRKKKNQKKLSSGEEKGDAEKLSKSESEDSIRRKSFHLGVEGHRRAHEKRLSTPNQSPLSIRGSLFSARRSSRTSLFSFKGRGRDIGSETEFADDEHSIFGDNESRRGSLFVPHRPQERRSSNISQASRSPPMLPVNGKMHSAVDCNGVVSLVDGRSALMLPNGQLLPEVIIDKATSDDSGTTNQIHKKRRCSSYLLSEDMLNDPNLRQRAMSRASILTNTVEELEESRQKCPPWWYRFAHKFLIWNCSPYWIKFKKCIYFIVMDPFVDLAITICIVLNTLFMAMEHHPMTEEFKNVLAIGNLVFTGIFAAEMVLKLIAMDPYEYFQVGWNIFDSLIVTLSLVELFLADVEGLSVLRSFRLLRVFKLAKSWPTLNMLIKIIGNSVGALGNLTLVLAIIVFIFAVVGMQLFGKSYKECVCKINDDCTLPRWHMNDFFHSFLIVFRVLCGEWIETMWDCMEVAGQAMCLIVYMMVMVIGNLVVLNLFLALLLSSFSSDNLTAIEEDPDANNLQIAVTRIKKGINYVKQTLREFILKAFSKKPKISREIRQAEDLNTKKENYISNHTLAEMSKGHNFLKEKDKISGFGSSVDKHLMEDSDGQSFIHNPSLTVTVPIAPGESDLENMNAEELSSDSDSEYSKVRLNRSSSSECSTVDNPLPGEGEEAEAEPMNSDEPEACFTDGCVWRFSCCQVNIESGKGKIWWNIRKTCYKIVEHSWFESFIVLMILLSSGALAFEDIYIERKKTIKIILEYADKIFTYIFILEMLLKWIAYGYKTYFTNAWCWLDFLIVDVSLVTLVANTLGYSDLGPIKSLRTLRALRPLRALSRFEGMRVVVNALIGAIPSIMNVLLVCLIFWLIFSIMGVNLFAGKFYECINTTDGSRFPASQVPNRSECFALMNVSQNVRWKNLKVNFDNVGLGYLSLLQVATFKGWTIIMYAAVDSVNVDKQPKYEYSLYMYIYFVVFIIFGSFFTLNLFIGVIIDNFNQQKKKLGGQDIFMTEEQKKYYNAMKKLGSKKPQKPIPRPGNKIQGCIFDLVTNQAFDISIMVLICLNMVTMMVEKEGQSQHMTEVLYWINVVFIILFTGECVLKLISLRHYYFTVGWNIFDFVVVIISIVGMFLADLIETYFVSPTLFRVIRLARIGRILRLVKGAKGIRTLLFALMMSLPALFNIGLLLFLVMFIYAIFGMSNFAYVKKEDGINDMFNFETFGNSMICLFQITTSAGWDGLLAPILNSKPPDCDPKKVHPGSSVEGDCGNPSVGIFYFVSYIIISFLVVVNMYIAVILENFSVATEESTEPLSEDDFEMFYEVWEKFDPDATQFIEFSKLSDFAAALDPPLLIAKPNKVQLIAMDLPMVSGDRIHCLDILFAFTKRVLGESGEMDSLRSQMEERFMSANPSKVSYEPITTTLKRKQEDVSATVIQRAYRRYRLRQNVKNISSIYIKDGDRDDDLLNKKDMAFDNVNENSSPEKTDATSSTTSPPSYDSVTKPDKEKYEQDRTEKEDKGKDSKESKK

The IC50 is the concentration at which inhibition is half-maximal. In the case of `COc1ccc(-c2ccccc2C(F)(F)F)cc1-n1c(=O)ccc2cc(S(=O)(=O)Nc3ccon3)ccc21` [Example 850, N-3-isoxazolyl-1-(4-methoxy-2′-(trifluoromethyl)-3-biphenylyl)-2-oxo-1,2-dihydro-6-quinolinesulfonamide], the IC50 (in-vitro Nav 1.7 PX data) came to 141 nM. This lies in the sub-micromolar range.

`COc1cc(-c2cc(F)cc(Cl)c2)c(F)cc1-n1c(=O)ccc2cc(S(=O)(=O)Nc3ncon3)ccc21` (atropisomer, axis not shown; (P)) [Example 326, (P)-1-(3′-chloro-2,5′-difluoro-5-methoxy-4-biphenylyl)-N-1,2,4-oxadiazol-3-yl-2-oxo-1,2-dihydro-6-quinolinesulfonamide] came in with an IC50 of 5 nM.

Turning to `N#CCOc1cc(Br)c(F)cc1-n1c(=O)ccc2cc(S(=O)(=O)Nc3ccon3)ccc21` [Example 623, 1-(4-bromo-2-(cyanomethoxy)-5-fluorophenyl)-N-(isoxazol-3-yl)-2-oxo-1,2-dihydroquinoline-6-sulfonamide], under setting [1], inhibition was half-maximal at 7780 nM (IC50).

As to `COc1ccc(-c2cc(F)cc(Cl)c2)cc1-n1c(=O)ccc2cc(S(=O)(=O)Nc3ccncn3)ccc21` [Example 610, 1-(3′-chloro-5′-fluoro-4-methoxy-3-biphenylyl)-2-oxo-N-4-pyrimidinyl-1,2-dihydro-6-quinolinesulfonamide], the IC50 (in-vitro Nav 1.7 PX data) was found to be 13 nM.

Take `COc1cc(C)cc(-c2ccc(-n3c(=O)ccc4cc(S(=O)(=O)Nc5ccon5)ccc43)c(OC)c2)c1` [Example 784, 1-(3,3′-dimethoxy-5′-methyl-4-biphenylyl)-N-3-isoxazolyl-2-oxo-1,2-dihydro-6-quinolinesulfonamide]: under “in-vitro Nav 1.7 PX data”, the IC50 came to 20 nM. Compared with the last compound, the IC50 is about 1.5-fold higher.

`COc1cc(Cl)cc(-c2cc(OC)c(-n3c(=O)ccc4cc(S(=O)(=O)Nc5ncc(F)cn5)ccc43)cc2F)c1` [Example 929, 1-(3′-chloro-2-fluoro-5,5′-dimethoxy-4-biphenylyl)-N-(5-fluoro-2-pyrimidinyl)-2-oxo-1,2-dihydro-6-quinolinesulfonamide] returned an IC50 (in-vitro Nav 1.7 PX data) of 23 nM.

With `COc1cc(-c2ccc(Cl)cc2)ccc1-n1c(=O)ccc2cc(S(=O)(=O)Nc3ncco3)ccc21` [Example 766, 1-(4′-chloro-3-methoxy-4-biphenylyl)-N-1,3-oxazol-2-yl-2-oxo-1,2-dihydro-6-quinolinesulfonamide], where the note is “in-vitro Nav 1.7 PX data”, the IC50 worked out at 37 nM.

For the compound `O=c1ccc2cc(S(=O)(=O)Nc3ncns3)ccc2n1-c1ccc(-c2cc(F)cc(F)c2)cc1C1CC1` [Example 1049, 1-(3-cyclopropyl-3′,5′-difluoro-4-biphenylyl)-2-oxo-N-1,2,4-thiadiazol-5-yl-1,2-dihydro-6-quinolinesulfonamide], the IC50 under setting [1] stood at 912 nM.

Compound `COc1cc(-c2cc(C)cc(Cl)c2)ccc1-n1c(=O)ccc2cc(S(=O)(=O)Nc3ccon3)ccc21` (atropisomer, axis not shown; (P)) [Example 585, (P)-1-(3′-chloro-3-methoxy-5′-methyl-4-biphenylyl)-N-3-isoxazolyl-2-oxo-1,2-dihydro-6-quinolinesulfonamide] returned an IC50 of 8 nM.

Take `COc1cc(-c2cccnc2C)c(F)cc1-n1c(=O)ccc2cc(S(=O)(=O)Nc3ccon3)ccc21` [Example 737, 1-(5-fluoro-2-methoxy-4-(2-methyl-3-pyridinyl)phenyl)-N-3-isoxazolyl-2-oxo-1,2-dihydro-6-quinolinesulfonamide]: half-maximal inhibition (in-vitro Nav 1.7 PX data) (IC50) required 1250 nM.

Compound `COc1ccc(-c2cccc(Cl)c2C)cc1-n1c(=O)ccc2cc(S(=O)(=O)Nc3ccon3)ccc21` [Example 895, 1-(3′-chloro-4-methoxy-2′-methyl-3-biphenylyl)-N-3-isoxazolyl-2-oxo-1,2-dihydro-6-quinolinesulfonamide] displayed an IC50 (in-vitro Nav 1.7 PX data) of 1840 nM.

In turn, `COc1cc(CC(C)(C)C)c(F)cc1-n1c(=O)ccc2cc(S(=O)(=O)Nc3ccon3)ccc21` [Example 1076, 1-(4-(2,2-dimethylpropyl)-5-fluoro-2-methoxyphenyl)-N-3-isoxazolyl-2-oxo-1,2-dihydro-6-quinolinesulfonamide] displayed an IC50 (in-vitro Nav 1.7 PX data) of 64 nM.
